{"source": "patent US20240350402A1", "about": "“TOPICAL DRUG TREATMENT TO PREVENT OR REDUCE CORNEAL SCARRING” (The Cleveland Clinic Foundation, priority 2021, published 2024)", "key": {"[1]": {"tested_on": "α-SMA-positive myofibroblasts", "test": "Alkali burn model: IHC α-SMA-positive stromal area and intensity (ImageJ)", "assay_type": "in vivo, rabbit", "conditions": "topical six times per day, one month", "protocol": "(§1) Alkali injuries were produced in one eye of rabbits with previously published methods^10 using 1N sodium hydroxide (Sigma, St. Louis, MO) in balanced salt solution (BSS, 0.64% sodium chloride, 0.075% potassium chloride, 0.048% calcium chloride dihydrate, […] magnesium chloride hexahydrate, 0.39% sodium acetate trihydrate, 0.17% sodium citrate dihydrate, pH 7.5, Alcon, H. Worth, TX) and a 5 mm diameter circular Whatman No. 1 filter paper (Cat #1001-6508, Fisher Scientific) wetted with 100 μl of 1N NaOH solution. Following the alkali burn injury, the cornea was irrigated profusely with BSS. Each injured cornea also received one drop of ciprofloxacin (Alcon, Ft. Worth, TX, USA) ten minutes after surgery and four times a day for one week and at least 15 minutes apart from the study medications.\nWorth TX), at least 5 minutes apart, or 4) 50 μl of BSS. […]\nThe area of the α-SMA-positive stroma in mm^2 and the total α-SMA opacity in pixels were quantitated using standardized images obtained with a 10× objective on a Leica DM6B upright microscope equipped with an automated stage and Leica 7000 T camera using the LAS X software (Leica Microsystems, GmbH, Wetzlar, Germany). The means of three central corneal sections were analyzed from each cornea to provide the area of α-SMA-positive stroma and the total α-SMA opacity. The area of α-SMA-positive stroma in mm^2 for each cornea was determined from full diameter and thickness central corneal section images (all converted to 300 DPI, 885 width×500 height, files with identical +50% brightness increase in Photoshop for all images) with the ImageJ 1.53a analysis software using the freehand selection tool to delineate the area(s) of α-SMA-positive staining. […] In these same sections for each cornea, the total α-SMA-positive intensity in pixels was also determined with ImageJ, similarly by using the summation if separate α-SMA-positive areas were present. […]"}, "[2]": {"tested_on": "corneal neovascularization (CNV)", "test": "Alkali burn model: central corneal neovascularization (corneal angiography)", "assay_type": "in vivo, rabbit", "conditions": "four corneas in each group, topical six times per day, one month", "protocol": "as §1\nWorth TX), at least 5 minutes apart, or 4) 50 μl of BSS.\nAll corneas had fluorescent angiography at the peak of dye passage in the cornea immediately after injection of 1.5 ml of 10% sodium fluorescein (McKesson, Irvine, TX) in the central ear vein with the slit lamp system and digital camera system using a “barrier filter” that only transmitted 520-530 nm, the peak of fluorescein emission, with broad illumination of the cornea, as previously described.^11"}, "[3]": {"tested_on": "collagen type IV", "test": "Alkali burn model: IHC collagen type IV intensity in anterior and posterior stroma (ImageJ)", "assay_type": "in vivo, rabbit", "conditions": "one month", "protocol": "Worth, TX) and a 5 mm diameter circular Whatman No. 1 filter paper (Cat #1001-6508, Fisher Scientific) wetted with 100 μl of 1N NaOH solution. Following the alkali burn injury, the cornea was irrigated profusely with BSS. Each injured cornea also received one drop of ciprofloxacin (Alcon, Ft. Worth, TX, USA) ten minutes after surgery and four times a day for one week and at least 15 minutes apart from the study medications. […] Worth TX), at least 5 minutes apart, or 4) 50 μl of BSS. Multiplex immunohistochemistry (IHC) was performed using previously described methods^8 and primary antibodies (Table 7) confirmed by western blotting and IHC to recognize rabbit antigens or isotypic control antibodies (Thermo Fisher Scientific, Waltham, MA), and secondary fluorescent tagged antibodies (Table 7). The collagen type IV antibody (Cat. #AB769, Millipore, Temecula CA) was raised against purified human and bovine collagen type IV that had been affinity purified with human and bovine collagen type IV crosslinked to agarose and cross-absorbed by the manufacturer with human and bovine collagens type I, II, III, V and VI to eliminate cross-reactivity. This collagen type IV antibody was shown previously to bind rabbit collagen IV in IHC,^8,9 and recognizes the alpha-1/alpha-2 chains but not the alpha-3 to alpha-6 chains. The keratocan antibody is raised against peptide […]-OH (SEQ ID NO:1). This marker was used to identify keratocytes in situ. […] All corneas in each group had IHC for collagen type IV. Images from each cornea were converted to uniform 300 DPI, 875×568 pixel, files. […] The staining intensity within each box was determined with the analyze histogram function and the mean of three boxes was the intensity value in the anterior or posterior stroma for that cornea."}, "[4]": {"tested_on": "rabbit corneas after alkali burn injury", "test": "Alkali burn model: slit lamp opacity area and intensity (ImageJ)", "assay_type": "in vivo", "conditions": "alkali burn 1N NaOH; topical six times per day, one month; 0.8 mg/ml losartan, 1% prednisolone acetate", "protocol": "All animal treatments and care were approved by the Institutional Animal Care and Use Committee (IACUC) at the Cleveland Clinic Foundation (Cleveland, OH, USA) and the Animal Care and Use Review Office of the Department of the Army (Fort Detrick, MD). All rabbits were treated in accordance with the tenets of the ARVO Statement for the Use of Animals in Ophthalmic and Vision Research. Sixteen 10- to 15-week-old female New Zealand White rabbits weighing 2.5 to 3.0 kg each were included in this example. […]\nAt one month after sodium hydroxide exposure and treatments, with the rabbits under ketamine-xylazine general anesthesia, the eyes were dilated with two drops of 1% tropicamide (Akom Co., Lake Forest, IL) for thirty minutes. […] For each study eye, the total area of opacity was determined by outlining the opacity with the freehand selection tool using ImageJ 1.53a analysis software calibrated to mm^2. The “raw internal density” in pixels for the opacified area in each cornea was also determined using ImageJ. […]"}}}
{"molecule": "CC(=O)OCC(=O)[C@@]1(O)CC[C@H]2[C@@H]3CCC4=CC(=O)C=C[C@]4(C)[C@H]3[C@@H](O)C[C@@]21C", "note": "[Prednisolone acetate, prednisolone acetate]", "values": [{"measurement": "localization of α-SMA-positive myofibroblasts in the stroma", "setting": "[1]", "value": "more variable"}, {"measurement": "corneas in which central corneal neovascularization developed", "setting": "[2]", "value": "one"}, {"measurement": "mean intensity units of collagen type IV in the anterior stroma compared to vehicle treatment", "setting": "[3]", "value": "trend towards a decrease"}, {"measurement": "total opacity intensity in pixels (ImageJ) vs BSS vehicle group", "setting": "[4]", "value": "did not reach statistical significance"}]}
